The text below walks through data of PubChem BioAssay (NCI).

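Values below derive from 48-hour exposures of cells grown in 96-well plates, with endpoints linearly interpolated between the two concentrations bracketing the appropriate inhibition level. Here, GI50 denotes the concentration required for 50% inhibition of growth. The concentration for full growth arrest is given as TGI.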

Test systems include SK-MEL-5 melanoma; NCI-H522 lung; SF-539 CNS; MCF7 breast; MALME-3M melanoma; HT29 colon; M14 melanoma; HOP-62 NSCLC; OVCAR-8 ovarian; RPMI-8226 leukemia.
Assay in all cases: NCI-60 cell line screen, 48 h

Take `CCN(C(=O)CCl)C(C)(C)C(SSSC(c1ccc(Cl)cc1)C(C)(C)N(CC)C(=O)CCl)c1ccc(Cl)cc1` (stereo not drawn): the GI50 was 6.92 µM in the test on SK-MEL-5 melanoma; 2.06 µM with NCI-H522 lung; 3.14 µM in the test on SF-539 CNS; 5.09 µM in the test with MCF7 breast; 2.21 µM in the test on MALME-3M melanoma; 2.65 µM in the test with HT29 colon. For the same compound, the GI50 is 1.91 µM with M14 melanoma, 8.33 µM with HOP-62 NSCLC, 10.9 µM in the test on OVCAR-8 ovarian and 3.99 µM in the test with RPMI-8226 leukemia. The TGI in the test on SK-MEL-5 melanoma was found to be 20.2 µM; in the test with NCI-H522 lung it was 3.87 µM; in the test with SF-539 CNS, 10.9 µM; in the test on MCF7 breast, 21.9 µM; in the test with MALME-3M melanoma, 3.97 µM; in the test on HT29 colon it was 8.23 µM. The TGI with M14 melanoma came to 3.65 µM; in the test on HOP-62 NSCLC it was 23.4 µM; in the test with OVCAR-8 ovarian, 24.1 µM; with RPMI-8226 leukemia, 18.2 µM.
Consider `CN(C)C(=O)c1cc2cnc(Nc3ccc(-c4csc5c(=O)cc(N6CCNCC6)oc45)cc3)nc2n1C1CCCC1`, for which the GI50 is 1.18 µM in the test with SK-MEL-5 melanoma; 0.473 µM in the test on NCI-H522 lung; 1.15 µM with SF-539 CNS; 0.294 µM in the test with MCF7 breast; 1.38 µM with MALME-3M melanoma; 0.438 µM in the test on HT29 colon. Further, the GI50 in the test on M14 melanoma is 0.99 µM; with HOP-62 NSCLC, 1.03 µM; in the test on OVCAR-8 ovarian it was 1.21 µM; in the test on RPMI-8226 leukemia, 0.453 µM. Further, the TGI is 2.51 µM in the test with SK-MEL-5 melanoma; 2.55 µM in the test with NCI-H522 lung; 2.43 µM in the test with SF-539 CNS; 1.57 µM in the test with MCF7 breast; 2.94 µM in the test on MALME-3M melanoma; 2.99 µM with HT29 colon. Further, the TGI is 2.59 µM with M14 melanoma, 10.6 µM with HOP-62 NSCLC, above 42.5 µM with OVCAR-8 ovarian and 2.74 µM in the test on RPMI-8226 leukemia.
Take `CO[C@H]1C[C@@H]2CC[C@@H](C)[C@@](O)(O2)C(=O)C(=O)N2CCCC[C@H]2C(=O)O[C@H]([C@H](C)C[C@@H]2CC[C@@H](OP(C)(C)=O)[C@H](OC)C2)CC(=O)[C@H](C)/C=C(\C)[C@@H](O)[C@@H](OC)C(=O)[C@H](C)C[C@H](C)/C=C/C=C/C=C/1C`: the TGI with SK-MEL-5 melanoma stood at 18.4 µM; in the test with NCI-H522 lung, 19.9 µM; in the test with SF-539 CNS, 21.7 µM; with MCF7 breast, 21 µM; with MALME-3M melanoma, 16.8 µM; in the test on HT29 colon, 24 µM. Moreover, the TGI in the test with M14 melanoma was 26 µM; with HOP-62 NSCLC, 21.5 µM; in the test on OVCAR-8 ovarian, 28.8 µM; in the test on RPMI-8226 leukemia, 40.6 µM. Also, the GI50 in the test on SF-539 CNS was below 0.0234 µM; with MCF7 breast it was 0.402 µM; in the test on MALME-3M melanoma, below 0.01 µM; with HT29 colon it was 8.07 µM; with M14 melanoma, 11.8 µM; with HOP-62 NSCLC it was below 0.01 µM. The GI50 with OVCAR-8 ovarian was below 0.01 µM; with RPMI-8226 leukemia, 8.49 µM.
As to `C=CC(=O)N1CCC([C@@H]2CCNc3c(C(N)=O)c(-c4ccc(Oc5ccccc5)cc4)nn32)CC1`, the GI50 in the test on SK-MEL-5 melanoma was 14.5 µM; with NCI-H522 lung, 3.06 µM; in the test with SF-539 CNS it was 16.8 µM; in the test with MCF7 breast it was 23.1 µM; with MALME-3M melanoma, 11.6 µM; in the test on HT29 colon it was 16.5 µM. The GI50 is 14.4 µM in the test on M14 melanoma, 16.9 µM with HOP-62 NSCLC, 13.8 µM in the test on OVCAR-8 ovarian and 14.5 µM with RPMI-8226 leukemia. In addition, the TGI in the test on SK-MEL-5 melanoma is 28.7 µM; in the test with NCI-H522 lung it was 20.3 µM; in the test with SF-539 CNS it was 56.4 µM; in the test with MCF7 breast, above 100 µM; in the test on MALME-3M melanoma, 26.8 µM; in the test on HT29 colon, above 71.1 µM. For the same compound, the TGI was 31.9 µM in the test on M14 melanoma, above 75.1 µM in the test with HOP-62 NSCLC, 74.2 µM in the test on OVCAR-8 ovarian and 42.8 µM in the test with RPMI-8226 leukemia.
As for `COc1cc2nc(N3CCCC3)nc(Nc3ccccc3)c2cc1OC`, the GI50 is 1.71 µM with SK-MEL-5 melanoma; 1.89 µM in the test with NCI-H522 lung; 0.56 µM with SF-539 CNS; 0.637 µM with MCF7 breast; 1.88 µM with MALME-3M melanoma; 1.34 µM in the test with HT29 colon. For the same compound, the GI50 was 1.83 µM in the test with M14 melanoma, 1.93 µM in the test with HOP-62 NSCLC, 1.54 µM in the test on OVCAR-8 ovarian and 1.07 µM in the test on RPMI-8226 leukemia. Moreover, the TGI worked out at 3.12 µM in the test on SK-MEL-5 melanoma; 3.96 µM with NCI-H522 lung; 1.84 µM in the test with SF-539 CNS; 2.29 µM with MCF7 breast; 3.37 µM with MALME-3M melanoma; 3.11 µM in the test on HT29 colon. Besides, the TGI was determined as 3.56 µM in the test on M14 melanoma, 4.2 µM in the test with HOP-62 NSCLC, 5.06 µM in the test on OVCAR-8 ovarian and 4.3 µM with RPMI-8226 leukemia.
Regarding `N#Cc1cccc(/C=C(/C(=O)c2ccccc2)c2ccccc2)c1`, the GI50 in the test on SK-MEL-5 melanoma was 4.04 µM; with NCI-H522 lung, 2.35 µM; in the test on SF-539 CNS it was 5.55 µM; in the test with MCF7 breast, 3.85 µM; with MALME-3M melanoma, 9.61 µM; with HT29 colon, 4.23 µM. Also, the GI50 is 4.05 µM in the test with M14 melanoma, 3.99 µM in the test with HOP-62 NSCLC, 2.97 µM in the test with OVCAR-8 ovarian and 2.82 µM in the test on RPMI-8226 leukemia. In addition, the TGI in the test on SK-MEL-5 melanoma was 15.6 µM; in the test on NCI-H522 lung, 6.95 µM; in the test on SF-539 CNS, 18.4 µM; with MCF7 breast, 15.9 µM; in the test on MALME-3M melanoma, 27.8 µM; with HT29 colon it was 15 µM. Further, the TGI in the test with M14 melanoma was found to be 20.8 µM; in the test on HOP-62 NSCLC, 13.5 µM; with OVCAR-8 ovarian, 25.5 µM; with RPMI-8226 leukemia, 9.27 µM.
As for `CC1(C)N=C(N)N=C(N)N1c1cccc(CCCCc2ccccc2)c1`, the GI50 is 0.198 µM with SK-MEL-5 melanoma; 0.691 µM in the test on NCI-H522 lung; 0.212 µM in the test with SF-539 CNS; 0.312 µM in the test on MCF7 breast; 2.31 µM in the test with MALME-3M melanoma; 0.0543 µM with HT29 colon. The GI50 was 0.657 µM in the test with M14 melanoma, 0.556 µM in the test on HOP-62 NSCLC, 0.262 µM with OVCAR-8 ovarian and 0.289 µM with RPMI-8226 leukemia. In addition, the TGI in the test with SK-MEL-5 melanoma amounted to 1.36 µM; in the test with NCI-H522 lung, 13.7 µM; with SF-539 CNS, 7.39 µM; with MCF7 breast, 10.2 µM; in the test with MALME-3M melanoma it was 14.8 µM; with HT29 colon it was 11.6 µM. For the same compound, the TGI with M14 melanoma was 18.6 µM; in the test on HOP-62 NSCLC it was 22.2 µM; in the test with OVCAR-8 ovarian it was 16 µM; with RPMI-8226 leukemia, 2.72 µM.
On to `c1ccc(-c2nnc(Nc3ccc4c(c3)OCCO4)o2)c(NCc2ccncc2)c1`, for which the GI50 in the test with SK-MEL-5 melanoma is 0.0257 µM; in the test on NCI-H522 lung, below 0.01 µM; in the test on SF-539 CNS it was 0.0283 µM; in the test with MCF7 breast, 0.0904 µM; in the test on MALME-3M melanoma, 0.68 µM; in the test on HT29 colon, 0.0321 µM. The GI50 was 0.0223 µM with M14 melanoma, 0.0297 µM in the test with HOP-62 NSCLC, 0.0419 µM with OVCAR-8 ovarian and 0.0445 µM with RPMI-8226 leukemia. The TGI was 0.153 µM in the test on SK-MEL-5 melanoma; 0.86 µM in the test with NCI-H522 lung; 6.01 µM in the test with SF-539 CNS; above 38.8 µM in the test with MCF7 breast; above 67.3 µM in the test on MALME-3M melanoma; 1.75 µM in the test with HT29 colon. For the same compound, the TGI in the test on M14 melanoma is 0.273 µM; in the test on HOP-62 NSCLC, 19.9 µM; in the test with OVCAR-8 ovarian it was above 42.2 µM; in the test on RPMI-8226 leukemia, 7.63 µM.
On to `COc1ccc2[nH]c(=O)c(/C=C/C(=O)/C=C/c3ccc(O)c(OC)c3)cc2c1`, for which the GI50 in the test with SK-MEL-5 melanoma is 1.77 µM; in the test with NCI-H522 lung it was 1.74 µM; in the test with SF-539 CNS, 1.58 µM; in the test with MCF7 breast it was 0.388 µM; in the test with MALME-3M melanoma it was 2.16 µM; in the test with HT29 colon, 0.777 µM. Moreover, the GI50 in the test with M14 melanoma was 1.67 µM; in the test with HOP-62 NSCLC, 2.03 µM; with OVCAR-8 ovarian, 1.52 µM; in the test with RPMI-8226 leukemia it was 0.359 µM. Also, the TGI in the test on SK-MEL-5 melanoma stood at 3.27 µM; in the test with NCI-H522 lung, 3.87 µM; in the test with SF-539 CNS, 3.21 µM; in the test on MCF7 breast, 1.89 µM; in the test with MALME-3M melanoma, 5.28 µM; in the test with HT29 colon, 2.12 µM. The TGI in the test with M14 melanoma was 4.99 µM; with HOP-62 NSCLC, 4.75 µM; with OVCAR-8 ovarian it was 11.5 µM; in the test on RPMI-8226 leukemia it was 1.65 µM.
